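Values below derive from 48-hour exposures of cells grown in 96-well plates, with endpoints linearly interpolated between the two concentrations bracketing the appropriate inhibition level. TGI is the concentration that stops growth completely.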
Key:
Experiment in all cases: DTP human tumour cell line panel, 48 h
[1] = test system: M19-MEL melanoma
[2] = test system: LXFL 529 NSCLC
[3] = test system: DMS 114 small cell lung
[4] = test system: SNB-78 CNS
[5] = test system: HOP-18 NSCLC
[6] = test system: DLD-1 colon
[7] = test system: KM20L2 colon
[8] = test system: XF 498 CNS
[9] = test system: RXF-631 renal

| SMILES | TGI [1] [µM] | TGI [2] [µM] | TGI [3] [µM] | TGI [4] [µM] | TGI [5] [µM] | TGI [6] [µM] | TGI [7] [µM] | TGI [8] [µM] | TGI [9] [µM] |
| --- | --- | --- | --- | --- | --- | --- | --- | --- | --- |
| COc1cc(-c2cc(=O)c3c(O)c(OC)c(OC)c(OC)c3o2)ccc1O | > 100 | > 100 | 77.8 | 70.1 | > 100 | > 100 | > 100 | – | – |
| CCCc1c[nH]c(-c2ccc(-c3cc(CCC)c(C=O)[nH]3)s2)c1 | 21.6 | 32.8 | 27.8 | 37.2 | 43 | 28.4 | – | 32.7 | – |
| Cc1c(-c2nnc(-c3ccc(Cl)cc3)o2)c(=O)n(-c2ccccc2)n1C | > 100 | > 100 | > 100 | > 100 | > 100 | > 100 | > 100 | > 100 | – |
| O=C1CCCC/C1=C1\C(=O)Nc2cc(F)ccc21 | > 100 | > 100 | > 100 | > 100 | > 100 | > 100 | > 100 | > 100 | – |
| O=C(O)Cc1cccc2c1Oc1ccccc1S2 | > 100 | > 100 | > 100 | > 100 | – | > 100 | > 100 | – | – |
| CC(=O)C1=C(C)Cn2c(=O)c3ccccc3c(=O)n2C1 | > 100 | > 100 | > 100 | – | – | > 100 | > 100 | – | > 100 |
| N#C/C(=C\c1ccc(O)c(O)c1)C(=O)NC1CCC(CC2CCC(NC(=O)/C(C#N)=C/c3ccc(O)c(O)c3)CC2)CC1 (centres undefined) | 5.23 | 28.1 | – | 5.37 | > 100 | > 40.4 | 3.81 | 16.5 | – |
| CCCCCCCCOC(CO)CO | > 100 | > 100 | > 100 | – | > 100 | > 100 | > 100 | – | – |
| CC1(C)CC(=O)C2=C(C1)S/C(=C1/SC3=C(S1)C(=O)CC(C)(C)C3)S2 | > 251 | > 251 | > 251 | > 251 | > 251 | > 251 | > 251 | > 251 | – |
| COc1ccc2c3c(n(Cc4ccccc4)c(=O)c2c1)-c1cc(OC)c(OC)cc1C3C (centres undefined) | > 73.1 | > 53 | > 89.2 | > 100 | > 100 | > 100 | > 100 | 38 | > 100 |
| CC1(C)OC(C[C@]2(C#N)C[C@H](CCl)OC(C)(C)O2)C[C@@H](C[C@]2(C#N)C[C@H](CCl)OC(C)(C)O2)O1 (some centres undefined) | > 100 | > 100 | – | > 100 | > 100 | > 100 | > 100 | > 100 | – |

From PubChem BioAssay (NCI)
